Test results published in ChEMBL document CHEMBL1201862, “PubChem BioAssay data set” (2004).
Active and inactive are the calls of the source.

Experiments:
[1] = viability of HCT116 lacking mutant beta-catenin – cell-based, human colon tumor, dose response (AID 1045); type: functional;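 further: HCT116 colon tumor cells with beta catenin knocked out; cells exposed to compound for 60 hours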
[2] = viability of PTEN-deleted HCT116 cells – cell-based, HCT116 PTEN knockout, dose response (AID 1047); type: functional;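 further: HCT116 colon tumor cells with PTEN knocked out; cells exposed to compound for 60 hours before readout; potency for loss of cell viability measured by luminescence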
[3] = target: T1, Polyadenylate-binding protein 1 (Homo sapiens, UniProt P11940); experiment: MLLE binding blockers, Cy5 peptide tracer – biochemical, fluorescence polarization, Cy5-PAM2 peptide, secondary, miRNA deadenylation inhibitor project, dose response (AID 602260); type: functional; details: read-out: IC50_Mean
T1 sequence (P11940 whole entry, the tested form may be a part): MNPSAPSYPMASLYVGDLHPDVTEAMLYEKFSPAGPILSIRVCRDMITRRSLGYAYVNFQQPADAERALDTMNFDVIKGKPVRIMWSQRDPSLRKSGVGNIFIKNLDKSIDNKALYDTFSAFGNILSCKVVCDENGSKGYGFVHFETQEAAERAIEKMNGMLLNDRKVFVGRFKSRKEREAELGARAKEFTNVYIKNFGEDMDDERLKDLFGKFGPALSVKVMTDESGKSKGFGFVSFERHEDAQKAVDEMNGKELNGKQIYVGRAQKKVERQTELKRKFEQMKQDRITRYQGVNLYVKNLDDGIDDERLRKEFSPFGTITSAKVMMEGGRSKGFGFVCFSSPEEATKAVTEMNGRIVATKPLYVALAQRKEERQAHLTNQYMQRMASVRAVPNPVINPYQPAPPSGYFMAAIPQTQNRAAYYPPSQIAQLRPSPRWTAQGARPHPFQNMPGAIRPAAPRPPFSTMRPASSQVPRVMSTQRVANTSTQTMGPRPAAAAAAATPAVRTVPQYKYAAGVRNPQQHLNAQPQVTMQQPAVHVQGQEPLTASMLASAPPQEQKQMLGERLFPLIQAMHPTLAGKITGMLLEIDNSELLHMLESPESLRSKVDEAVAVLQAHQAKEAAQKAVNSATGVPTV

[4] = target: T1, Polyadenylate-binding protein 1; experiment: MLLE domain peptide-binding blockers, IC50 – biochemical, fluorescence polarization, FITC-PAM2 peptide, dose response (AID 602259); type: functional; details: read-out: IC50_Mean
[5] = target: T2, Protein RecA (Mycobacterium tuberculosis, UniProt P9WHJ3); experiment: Fluorescence Cell-Free Homogeneous Dose Retest to Identify Inhibitors of RecA-Intein Splicing Activity. [Related pubchem assays (depositor defined):AID2097, AID2223, AID489010, AID492950]; type: functional
T2 sequence (P9WHJ3 whole entry): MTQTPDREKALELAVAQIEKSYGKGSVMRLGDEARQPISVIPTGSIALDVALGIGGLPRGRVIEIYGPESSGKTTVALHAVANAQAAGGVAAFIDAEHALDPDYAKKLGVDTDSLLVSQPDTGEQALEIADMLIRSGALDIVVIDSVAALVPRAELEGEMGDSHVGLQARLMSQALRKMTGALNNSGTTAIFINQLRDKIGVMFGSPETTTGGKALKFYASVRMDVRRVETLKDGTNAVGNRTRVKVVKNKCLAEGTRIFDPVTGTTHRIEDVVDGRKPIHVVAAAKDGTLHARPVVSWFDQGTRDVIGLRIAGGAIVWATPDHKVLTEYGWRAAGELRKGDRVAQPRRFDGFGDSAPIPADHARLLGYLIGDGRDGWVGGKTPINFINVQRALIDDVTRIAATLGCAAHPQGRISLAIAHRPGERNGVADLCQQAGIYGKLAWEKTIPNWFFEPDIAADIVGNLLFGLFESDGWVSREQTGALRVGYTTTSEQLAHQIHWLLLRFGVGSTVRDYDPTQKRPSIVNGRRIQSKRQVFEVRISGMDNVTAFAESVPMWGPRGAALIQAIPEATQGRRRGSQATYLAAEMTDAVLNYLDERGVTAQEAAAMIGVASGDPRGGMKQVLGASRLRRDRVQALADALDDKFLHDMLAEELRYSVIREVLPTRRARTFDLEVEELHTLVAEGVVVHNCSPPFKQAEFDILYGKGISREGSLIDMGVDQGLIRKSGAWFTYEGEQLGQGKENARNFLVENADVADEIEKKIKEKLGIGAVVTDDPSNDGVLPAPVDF

[6] = target: T3, Replicative DNA helicase DnaB (Mycobacterium tuberculosis, UniProt P9WMR3); experiment: DnaB intein splicing inhibitors, dose response, biochemical, cell-free fluorescence (AID 449749); type: functional
T3 sequence (P9WMR3 whole entry): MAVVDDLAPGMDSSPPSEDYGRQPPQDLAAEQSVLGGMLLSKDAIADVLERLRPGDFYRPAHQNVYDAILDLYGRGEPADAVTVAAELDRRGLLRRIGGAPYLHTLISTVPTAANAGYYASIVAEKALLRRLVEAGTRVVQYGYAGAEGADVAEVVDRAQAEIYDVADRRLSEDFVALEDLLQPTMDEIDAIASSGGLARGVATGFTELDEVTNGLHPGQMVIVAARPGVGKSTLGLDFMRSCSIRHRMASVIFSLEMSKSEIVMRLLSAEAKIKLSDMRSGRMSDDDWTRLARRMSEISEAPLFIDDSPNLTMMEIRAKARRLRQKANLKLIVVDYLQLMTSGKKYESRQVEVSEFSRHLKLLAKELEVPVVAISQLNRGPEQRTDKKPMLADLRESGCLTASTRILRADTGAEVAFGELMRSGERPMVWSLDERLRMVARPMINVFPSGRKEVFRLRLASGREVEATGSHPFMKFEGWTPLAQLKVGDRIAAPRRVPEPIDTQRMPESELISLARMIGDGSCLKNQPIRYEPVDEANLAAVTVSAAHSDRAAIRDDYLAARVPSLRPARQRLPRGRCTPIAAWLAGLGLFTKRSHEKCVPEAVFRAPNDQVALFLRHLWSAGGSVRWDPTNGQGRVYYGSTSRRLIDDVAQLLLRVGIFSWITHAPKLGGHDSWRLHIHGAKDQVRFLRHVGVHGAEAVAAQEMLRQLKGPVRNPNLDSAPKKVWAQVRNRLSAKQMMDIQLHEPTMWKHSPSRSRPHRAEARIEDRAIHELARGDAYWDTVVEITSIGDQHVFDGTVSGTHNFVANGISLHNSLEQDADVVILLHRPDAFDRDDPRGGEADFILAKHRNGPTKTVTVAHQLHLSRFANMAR

[7] = test system: H9c2; experiment: cells; type: functional, cell-based; details: Rattus norvegicus, H9c2, Myocardium;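 further: confirmatory concentration-response retest of ultra-high-throughput screening hits for modulation of myocardial damage; cell death induced by hydrogen peroxide oxidative stress; compound pretreatment for 60 min then peroxide exposure for 2 h; potency is for protecting the cells against peroxide damage rather than for killing them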
[8] = target: Cytochrome P450 2C9 (Homo sapiens, UniProt P11712)
Chain of Cytochrome P450 2C9 (P11712 whole entry): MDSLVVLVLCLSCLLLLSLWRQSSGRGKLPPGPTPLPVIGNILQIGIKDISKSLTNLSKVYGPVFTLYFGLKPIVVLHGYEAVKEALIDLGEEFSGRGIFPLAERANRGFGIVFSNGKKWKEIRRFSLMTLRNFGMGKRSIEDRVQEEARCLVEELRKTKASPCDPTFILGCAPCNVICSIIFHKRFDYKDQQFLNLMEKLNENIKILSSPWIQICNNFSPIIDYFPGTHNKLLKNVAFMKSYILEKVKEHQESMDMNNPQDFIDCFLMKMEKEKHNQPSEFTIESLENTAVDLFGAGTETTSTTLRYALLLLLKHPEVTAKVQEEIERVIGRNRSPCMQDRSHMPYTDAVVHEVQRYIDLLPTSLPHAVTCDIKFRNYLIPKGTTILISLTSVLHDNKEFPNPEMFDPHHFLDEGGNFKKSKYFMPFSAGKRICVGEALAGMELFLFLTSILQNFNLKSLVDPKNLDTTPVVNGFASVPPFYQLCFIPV

[9] = target: Cytochrome P450 2D6 (Homo sapiens, UniProt P10635);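 further: CYP2D6 member of a cytochrome P450 panel assay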
Chain of Cytochrome P450 2D6 (P10635 whole entry): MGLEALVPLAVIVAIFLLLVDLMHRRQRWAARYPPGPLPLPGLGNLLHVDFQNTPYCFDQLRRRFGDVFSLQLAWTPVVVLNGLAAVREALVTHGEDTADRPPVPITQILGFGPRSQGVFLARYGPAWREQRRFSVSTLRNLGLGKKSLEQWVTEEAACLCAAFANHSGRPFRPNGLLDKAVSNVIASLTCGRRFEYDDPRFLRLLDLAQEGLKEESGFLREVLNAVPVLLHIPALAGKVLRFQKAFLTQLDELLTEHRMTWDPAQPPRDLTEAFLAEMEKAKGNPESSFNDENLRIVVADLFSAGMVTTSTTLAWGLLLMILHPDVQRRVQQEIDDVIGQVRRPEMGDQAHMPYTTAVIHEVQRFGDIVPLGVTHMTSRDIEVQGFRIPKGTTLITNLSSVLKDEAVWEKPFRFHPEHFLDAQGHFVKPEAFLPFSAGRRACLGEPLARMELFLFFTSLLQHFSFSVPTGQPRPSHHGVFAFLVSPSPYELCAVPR

[10] = target: Cytochrome P450 2C19 (Homo sapiens, UniProt P33261); experiment: Cytochrome panel assay with activity outcomes. Panel member name: p450-cyp2c19 Compounds with AC50 equal or less than 10 uM are considered active; type: functional; details: read-out: AC50
Chain of Cytochrome P450 2C19 (P33261 whole entry): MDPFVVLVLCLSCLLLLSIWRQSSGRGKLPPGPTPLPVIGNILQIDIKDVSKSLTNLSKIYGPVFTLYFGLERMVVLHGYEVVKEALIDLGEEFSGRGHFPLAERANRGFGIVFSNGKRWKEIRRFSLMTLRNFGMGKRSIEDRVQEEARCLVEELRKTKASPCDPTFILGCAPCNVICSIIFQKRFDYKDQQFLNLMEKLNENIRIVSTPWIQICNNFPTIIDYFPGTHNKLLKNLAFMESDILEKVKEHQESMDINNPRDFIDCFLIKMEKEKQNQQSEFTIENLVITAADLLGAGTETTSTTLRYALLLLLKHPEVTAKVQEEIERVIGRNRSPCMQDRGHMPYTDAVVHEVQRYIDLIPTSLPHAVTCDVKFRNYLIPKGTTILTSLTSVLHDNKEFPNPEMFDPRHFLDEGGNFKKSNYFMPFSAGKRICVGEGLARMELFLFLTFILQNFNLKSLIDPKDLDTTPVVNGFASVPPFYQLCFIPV

[11] = target: Cytochrome P450 3A4 (Homo sapiens, UniProt P08684);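 further: CYP3A4 tested as one member of a cytochrome P450 panel screen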
Chain of Cytochrome P450 3A4 (P08684 whole entry): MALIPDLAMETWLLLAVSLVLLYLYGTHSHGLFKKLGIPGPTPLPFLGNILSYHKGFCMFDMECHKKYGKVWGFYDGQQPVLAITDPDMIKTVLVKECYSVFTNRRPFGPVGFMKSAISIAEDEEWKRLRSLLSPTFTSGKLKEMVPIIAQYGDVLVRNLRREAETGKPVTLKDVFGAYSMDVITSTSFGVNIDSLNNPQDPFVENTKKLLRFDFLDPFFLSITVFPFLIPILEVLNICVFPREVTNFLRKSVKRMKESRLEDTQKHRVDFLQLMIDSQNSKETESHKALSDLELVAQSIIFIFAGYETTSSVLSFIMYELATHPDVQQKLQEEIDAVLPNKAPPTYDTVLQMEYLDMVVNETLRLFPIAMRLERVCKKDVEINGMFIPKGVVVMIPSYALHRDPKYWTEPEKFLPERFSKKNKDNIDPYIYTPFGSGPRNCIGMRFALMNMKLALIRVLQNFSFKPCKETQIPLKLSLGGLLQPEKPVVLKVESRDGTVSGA

[12] = Trypanosoma cruzi growth suppression in host cells – NIH3T3 host cells, beta-gal luminescence, confirmation (AID 2044); type: functional, cell-based;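 further: intracellular parasites grown in NIH/3T3 mouse fibroblasts as host cells; luminescent beta-galactosidase reporter signal from transgenic T. cruzi replicating inside host cells; inhibitors lower the luminescence signal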
[13] = NIH3T3 cell viability loss – ATP luminescence, mouse fibroblasts, counter-screen, dose response (AID 2010); type: functional, cell-based;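 further: cells exposed to compound for about 90 hours before reading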
[14] = test system: INS1; experiment: INS-1E survival protection against cytokine death – cell-based, luminescence, retest, dose response (AID 449756); type: functional; details: Rattus norvegicus;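 further: cell death triggered by IL-1 beta plus TNF-alpha plus IFN-gamma mixture; protective hits raise ATP signal compared with cytokine alone wells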
[15] = NIH-3T3 fibroblast cytotoxicity, dose response, cytotoxicity control, cell-based, fluorescence, Alamar Blue, secondary assay (AID 2327); type: functional;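 further: NIH-3T3 mouse fibroblasts cultured with fluconazole at 8 µg/mL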

## CCc1cc2c(=O)c(-c3ccc4c(c3)OCCO4)coc2cc1OS(C)(=O)=O
[1]
  EC50: 18 µM (active)
[2]
  EC50: 14.6 µM (active)

## Cn1ccnc1P(=S)(c1nccn1C)N1CCOCC1
[3]
  IC50: > 66 µM (inactive)
[4]
  IC50: > 66 µM (inactive)

## CSc1ccc(C(c2c(C)n[nH]c2O)c2c(C)n[nH]c2O)cc1
[5]
  EC50: 0.241 µM (active)
[6]
  AC50: 0.432 µM (active)

## CCOc1cccc(=O)c2c(C)oc(C)c12
[3]
  IC50: 37.3 µM (inactive)
[4]
  IC50: 41.6 µM (inactive)

## Cc1n[nH]c2c1C1(CCC3(CC1)OCCO3)C(C#N)=C(N)O2
[5]
  EC50: > 380 µM (inactive)
[6]
  AC50: > 380 µM (inactive)

## COc1nc(N/N=C/c2cc3c(cc2Br)OCO3)nc(N2CCOCC2)n1
[7]
  IC50: > 79 µM (inactive)

## COC(=O)c1[nH]c2c(c1C)C(=O)CC(c1cc(OC)ccc1OC)C2 (stereo not drawn)
[7]
  IC50: > 79 µM (inactive)

## O=C(Oc1ccccc1)N1CCC2(CC1)CCN(c1ccncc1)CC2
[8]
  AC50: 20 µM (inconclusive)
[9]
  AC50: 39.8 µM (inconclusive)

## COc1cccc(-c2nc(NCc3cnc(C)cn3)c3ccccc3n2)c1
[10]
  AC50: 25.1 µM (inconclusive)
[9]
  AC50: 39.8 µM (inconclusive)

## CCN(CC)S(=O)(=O)c1cc(-c2nnc(-c3ccc(Br)cc3)o2)ccc1Cl
[1]
  EC50: 21.5 µM (active)
[2]
  EC50: 28.1 µM (active)

## CN(C)c1ncc2nc(-c3ccc(Cl)cc3)c(=O)n(C[C@H]3CCCO3)c2n1
[9]
  AC50: 1.58 µM (inconclusive)

## Cc1ccccc1NC(=O)COC(=O)CCc1nc(O)c2ccccc2n1
[7]
  IC50: 10.1 µM (active)

## CSc1nc2ccccc2cc1/C=C(\C#N)c1cccc(C)c1
[11]
  AC50: 25.1 µM (inconclusive)
[8]
  AC50: 31.6 µM (inconclusive)
[9]
  AC50: 6.31 µM (inconclusive)

## CCC(Sc1nc2cc3c(cc2c(=O)n1Cc1ccco1)OCO3)C(=O)Nc1ccccc1OC (stereo not drawn)
[9]
  AC50: 5.01 µM (inconclusive)

## CCC(=O)Oc1ccc2c(C)cc(=O)oc2c1C
[7]
  IC50: 74.2 µM (inactive)

## Cc1noc(C)c1-c1nc(N(C)C)c2ccccc2n1
[11]
  AC50: 15.8 µM (inconclusive)
[10]
  AC50: 25.1 µM (inconclusive)
[9]
  AC50: 20 µM (inconclusive)

## O=C(Nc1ccc(F)cc1)c1cnc(-c2ccccc2)nc1-c1ccccc1
[1]
  EC50: 9.24 µM (active)
[2]
  EC50: 10 µM (active)

## COCCNc1ncnc2ccc(-c3ccccc3C(F)(F)F)cc12
[9]
  AC50: 39.8 µM (inconclusive)

## O=[N+]([O-])c1cc(/C=N/c2cccc3c(O)cccc23)ccc1Cl
[5]
  EC50: 8.76 µM (active)
[6]
  AC50: 46.8 µM (active)

## Cc1cc2cc(CN3C(=O)c4ccccc4C3=O)ccc2n1C
[12]
  EC50: < 0.1 µM (active)
[13]
  EC50: > 60 µM (not active)
[3]
  IC50: > 66 µM (inactive)
[4]
  IC50: 55.2 µM (inactive)
[14]
  AC50: 13.3 µM (active)

## CSc1ccccc1N=C(S)Nc1ccc(S(N)(=O)=O)cc1
[3]
  IC50: > 66 µM (inactive)
[4]
  IC50: > 66 µM (inactive)

## CCN1CCN(c2nc3ccccc3nc2C(C#N)C(=O)OC2CCCCC2)CC1 (stereo not drawn)
[10]
  AC50: 39.8 µM (inconclusive)
[8]
  AC50: 39.8 µM (inconclusive)
[9]
  AC50: 28.2 µM (inconclusive)

## COC(=O)[C@@]1(Cc2ccccc2)[C@H]2c3cc(C(=O)N(C)C)n(Cc4ccccc4)c3C[C@H]2CN1C(=O)c1ccccc1
[9]
  AC50: 39.8 µM (inconclusive)

## COc1cc(C(=O)Nc2cc3c(cc2N2CCCCC2)n(C)c(=O)n3C)cc(OC)c1OC
[7]
  IC50: 8.81 µM (active)

## COc1cc(/C=N/NC(=O)c2ccncc2)ccc1OCC(=O)Nc1ccc(C)c(C)c1
[7]
  IC50: > 79 µM (inactive)

## CCN(C[C@H]1N[C@@](CC)(C(=O)OC)[C@H]2C(=O)N(Cc3ccccc3)C(=O)[C@@H]12)S(=O)(=O)c1ccc(F)cc1
[7]
  IC50: 13.9 µM (active)

## CCC(C)(C)n1nnnc1CN(Cc1ccco1)Cc1cc2cc3c(cc2nc1O)OCO3
[3]
  IC50: > 66 µM (inactive)
[4]
  IC50: > 66 µM (inactive)

## COCc1nnc(NC(=O)c2ccc(S(=O)(=O)N3CCCCCC3)cc2)o1
[15]
  EC50: > 160 µM (inactive)

## Cc1cc[n+](-c2[n-]c(=O)sc2C=NNC(=O)c2ccccc2)cc1
[3]
  IC50: > 66 µM (inactive)
[4]
  IC50: > 66 µM (inactive)

## CCOC(=O)c1cnc2ccc(C(=O)OC)cc2c1NCCc1ccc(OC)c(OC)c1
[7]
  IC50: > 79 µM (inactive)

## CCOC(=O)CNc1nnc(SCC(=O)OCC)[nH]c1=O
[5]
  EC50: 0.845 µM (active)
[6]
  AC50: 8.14 µM (active)
[3]
  IC50: > 66 µM (inactive)
[4]
  IC50: > 66 µM (inactive)

## Cn1c(SCc2nc3ccccc3n2CCO)nc2ccccc21
[9]
  AC50: 20 µM (inconclusive)

## COc1ccc(COc2cc(-c3cccc(OC)c3)nc3ccc(NC(=O)c4cccnc4)cc23)cc1
[7]
  IC50: > 79 µM (inactive)

## CC(C)c1cccc2c([Si](C)(C)C)c3c(nc12)-c1cccc(=O)n1C3
[9]
  AC50: 20 µM (inconclusive)

## Nc1c(C(=O)NC2CCCC2)c2nc3ccccc3nc2n1N
[7]
  IC50: > 79 µM (inactive)

## COC(=O)COc1ccc(C(c2c(C)n[nH]c2O)c2c(C)n[nH]c2O)cc1
[5]
  EC50: 0.377 µM (active)
[6]
  AC50: 0.347 µM (active)

## COc1ccc(C(=O)c2ccccc2)c(O)c1 [OXYBENZONE]
[10]
  AC50: 0.398 µM (inconclusive)
[9]
  AC50: 12.6 µM (inconclusive)

## Cc1ccc2c(c1)N(C(=O)CSc1nncn1C)C(C)(C)c1ssc(=S)c1-2
[5]
  EC50: 10.1 µM (active)
[6]
  AC50: 8.82 µM (active)

## CC(=O)c1cccc(-c2cnc3c(NC=O)cc(-c4ccc(F)cc4)cn23)c1
[7]
  IC50: > 79 µM (inactive)
